Laboratory results as given in patent US11352352B2, “Aminopyrimidine compound, preparation method therefor and use thereof” (BEIJING ADAMADLE BIOTECHNOLOGY LIMITED LIABILITY COMPANY, priority 2017, dated 2022).

Tests used:
Assay in all cases: Cell proliferation inhibition experiment, CellTiter-Glo (CTG) method
Format in all cases: cell-based
PC-9 = PC-9 cells, 3 days
Procedure, shortened: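 Cells in log-phase growth (viability above 90% by trypan blue) were seeded at 90 μL per well in black-walled, clear-bottom 96-well plates and incubated overnight at 37° C., 5% CO2. A T0 plate was read the next day. Test compounds were added at nine concentrations in triplicate with a solvent control. Viability was measured by CellTiter-Glo luminescence on EnVision, and IC50 came from non-linear S-curve fitting in GraphPad Prism 5.0.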

NCI-H1975 = conditions: for IC50: Homo sapiens, NCI-H1975, 72 h, NCI-H1975 cells, CTG, 3 days; for A-431/NCI-H1975 Selectivity: ratio of A-431 IC50 to NCI-H1975 IC50
Procedure, shortened: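 NCI-H1975 cells with viability above 90% by trypan blue were seeded at 90 μL per well in black 96-well plates and incubated overnight at 37° C., 5% CO2. Compounds were added at nine concentrations in triplicate, and viability was measured with CellTiter-Glo luminescence on EnVision. IC50 came from non-linear S-curve fitting in GraphPad Prism 5.0.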

A-431 = A-431 cells, 3 days
Procedure, shortened: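 IC50 values come from sigmoidal dose-response fits of percent survival, measured by CellTiter-Glo luminescence after 3 days' culture with compound. Nine-point, threefold series in triplicate, starting at 30 μM for A-431 and at 1.111 μM for NCI-H1975 and PC-9.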

IC50 (PC-9; Homo sapiens, PC-9, 72 h) [nM]	IC50 (NCI-H1975) [nM]	IC50 (A-431; Homo sapiens, A-431, 72 h) [nM]	IC50 (PC-9) [nM]	IC50 (A-431) [nM]	Compound	A-431/NCI-H1975 Selectivity (NCI-H1975)
6.7	8.2	598	–	–	C=CC(=O)Nc1cc(Nc2cc(-c3ccc4c(cnn4C)c3)ncn2)c(OC(F)F)cc1N(C)CCNC(C)(C)C [compound 120]	73.0
31.1	40.2	2310	–	–	C=CC(=O)Nc1cc(Nc2cc(-c3ccc4c(cnn4C)c3)ncn2)c(OCC)cc1N(C)CCNC(C)(C)C [compound 121]	57.6
11.6	5.2	580	–	–	C=CC(=O)Nc1cc(Nc2cc(-c3ccc4c(cnn4C)c3)ncn2)c(OC(F)F)cc1NCCN(C)C [compound 122]	111.5
15.5	13.7	698	–	–	C=CC(=O)Nc1cc(Nc2cc(-c3ccc4c(cnn4C)c3)ncn2)c(OCC)cc1NCCN(C)C [compound 123]	51.0
32.3	35.2	1470	–	–	C=CC(=O)Nc1cc(Nc2cc(-c3ccc4ncsc4c3)ncn2)c(OC)cc1N(C)CCN1CCN(C)CC1 [compound 124]	41.7
22.1	32.1	1580	–	–	C=CC(=O)Nc1cc(Nc2cc(-c3ccc4c(cnn4C)c3)ncn2)c(OC)cc1N(C)CCN1C[C@@H](C)N(C)[C@@H](C)C1 [compound 125]	49.2
64.1	85	2010	–	–	C=CC(=O)Nc1cc(Nc2cc(-c3ccc4ncsc4c3)ncn2)c(OC)cc1N(C)CCN1C[C@@H](C)N(C)[C@@H](C)C1 [compound 126]	23.7
163	45.1	2300	–	–	C=CC(=O)Nc1cc(Nc2cc(-c3ccc4c(cnn4C)c3)ncn2)c(OC)cc1N(C)CCN1CCN(C2CC2)CC1 [compound 127]	51.0
70.7	103	1370	–	–	C=CC(=O)Nc1cc(Nc2cc(-c3ccc4ncsc4c3)ncn2)c(OC)cc1N(C)CCN1CCN(C2CC2)CC1 [compound 128]	13.2
43.2	56.6	2310	–	–	C=CC(=O)Nc1cc(Nc2cc(-c3ccc4c(c3)ncn4C)ncn2)c(OC)cc1N(C)CCN1CCN(C(C)=O)CC1 [compound 130]	40.9
118	42.3	2040	–	–	C=CC(=O)Nc1cc(Nc2cc(-c3ccc4c(c3)ncn4C)ncn2)c(OC)cc1OCCN1CCN(C)CC1 [compound 132]	48.3
10.7	9.9	598	–	–	C=CC(=O)Nc1cc(Nc2cc(-c3ccc4c(cnn4C)c3)ncn2)c(OC)cc1N1CCN(C2CCN(C)CC2)CC1 [compound 133]	60.4
31.1	33.8	1430	–	–	C=CC(=O)Nc1cc(Nc2cc(-c3ccc4c(cnn4C)c3)ncn2)c(OC)cc1N1CCN(C2CCN(C(C)=O)CC2)CC1 [compound 134]	42.4
17.7	15.4	756	–	–	C=CC(=O)Nc1cc(Nc2cc(-c3ccc4c(cnn4C)c3)ncn2)c(OC)cc1N1CCN(C(=O)CN(C)C)CC1 [compound 135]	–
45.6	56.2	2300	–	–	C=CC(=O)Nc1cc(Nc2cc(-c3ccc4c(cnn4C)c3)ncn2)c(OC)cc1N1CCN(CC(=O)N(C)C)CC1 [compound 136]	41.1
7.6	4.8	597	–	–	C=CC(=O)Nc1cc(Nc2cc(-c3ccc4c(cnn4C)c3)ncn2)c(OC)cc1N1CCC(N(CC)CC)CC1 [compound 137]	–
57.9	43.1	1160	–	–	C=CC(=O)Nc1cc(Nc2cc(-c3ccc4c(cnn4C)c3)ncn2)c(OCC)cc1N(C)CCN(C)C(C)C [compound 139]	26.8
13.8	11.7	987	–	–	C=CC(=O)Nc1cc(Nc2cc(-c3ccc4c(cnn4C)c3)ncn2)c(OCC)cc1N(C)CCN(C)CC [compound 140]	84.4
23.1	8.4	539	–	–	C=CC(=O)Nc1cc(Nc2cc(-c3ccc4c(cnn4C)c3)ncn2)c(OC(F)F)cc1N(C)CCN(C)CC [compound 141]	64.2

IC50 (PC-9; Homo sapiens, PC-9, 72 h) [nM]	IC50 (NCI-H1975) [nM]	IC50 (A-431; Homo sapiens, A-431, 72 h) [nM]	IC50 (PC-9) [nM]	IC50 (A-431) [nM]	Compound	A-431/NCI-H1975 Selectivity (NCI-H1975)
32.6	24.5	968	–	–	C=CC(=O)Nc1cc(Nc2cc(-c3ccc4c(cnn4C)c3)ncn2)c(OC)cc1N(C)C1CCN(C(C)C)CC1 [compound 142]	39.5
23.5	51.6	988	–	–	C=CC(=O)Nc1cc(Nc2cc(-c3ccc4c(cnn4C)c3)ncn2)c(OC)cc1N1CCN(C2CC2)CC1 [compound 143]	19.2
33.7	37.1	1460	–	–	C=CC(=O)Nc1cc(Nc2cc(-c3ccc4c(cnn4C)c3)ncn2)c(OC(F)F)cc1N1CCN(CCOC)CC1 [compound 145]	39.3
14.9	10.2	800	–	–	C=CC(=O)Nc1cc(Nc2cc(-c3ccc4c(cnn4C)c3)ncn2)c(OC(F)F)cc1N1CCC(N2C[C@@H](C)N(C)[C@@H](C)C2)CC1 [compound 146]	78.5
24.7	18.4	978	–	–	C=CC(=O)Nc1cc(Nc2cc(-c3ccc4c(cnn4C)c3)ncn2)c(OC(F)F)cc1N1CCC(N2CCN(C(C)C)CC2)CC1 [compound 147]	53.2
31.9	28.7	1350	–	–	C=CC(=O)Nc1cc(Nc2cc(-c3ccc4c(cnn4C)c3)ncn2)c(OC(F)F)cc1N1CCC(N2C[C@@H](C)O[C@@H](C)C2)CC1 [compound 148]	46.9
674	28.4	1370	–	–	C=CC(=O)Nc1cc(Nc2cc(-c3ccc4c(cnn4C)c3)ncn2)c(OC(F)F)cc1N1CCN(CC2CC2)CC1 [compound 149]	48.2
19.3	5.3	543	–	–	C=CC(=O)Nc1cc(Nc2cc(-c3ccc4c(cnn4C)c3)ncn2)c(OC(F)F)cc1N1CCC(N2CCCC2)CC1 [compound 150]	102.5
79.9	58.9	2050	–	–	C=CC(=O)Nc1cc(Nc2cc(-c3ccc4c(cnn4C)c3)ncn2)c(OC(F)(F)F)cc1N(C)CCN(C)C [compound 151]	34.7
–	23.6	–	43.2	1970	C=CC(=O)Nc1cc(Nc2cc(-c3ccc4c(cnn4C)c3)ncn2)c(OC)cc1N1CCC(N2CCOCC2)CC1 [compound 152]	83.3
35.1	25	1320	–	–	C=CC(=O)Nc1cc(Nc2cc(-c3ccc4c(cnn4C)c3)ncn2)c(OC(F)F)cc1N1CCN(C2CCOCC2)CC1 [compound 153]	53.0
36.4	34.7	1400	–	–	C=CC(=O)Nc1cc(Nc2cc(-c3ccc4cnn(C)c4c3)ncn2)c(OC)cc1N1C[C@@H](C)N(C)[C@@H](C)C1 [compound 154]	–
2.7	25.1	1240	–	–	C=CC(=O)Nc1cc(Nc2cc(-c3ccc4cnn(C)c4c3)ncn2)c(OC)cc1N1CCC(N2C[C@@H](C)N(C)[C@@H](C)C2)CC1 [compound 156]	49.5
11	32.7	1650	–	–	C=CC(=O)Nc1cc(Nc2cc(-c3ccc4cnn(C)c4c3)ncn2)c(OC)cc1N1CCC(N2CCN(C(C)C)CC2)CC1 [compound 157]	50.6
27.9	31.9	1530	–	–	C=CC(=O)Nc1cc(Nc2cc(-c3ccc4cnn(C)c4c3)ncn2)c(OC)cc1N1CCN(CCOC)CC1 [compound 159]	–
32.7	39.2	2080	–	–	C=CC(=O)Nc1cc(Nc2cc(-c3ccc4cnn(C)c4c3)ncn2)c(OC(F)F)cc1N1C[C@@H](C)C(N)[C@@H](C)C1 (stereo partly shown) [compound 160]	53.0
19.9	17.4	1030	–	–	C=CC(=O)Nc1cc(Nc2cc(-c3ccc4cnn(C)c4c3)ncn2)c(OC(F)F)cc1N1CCC(N2CCOCC2)CC1 [compound 161]	59.3
18.9	16.8	763	–	–	C=CC(=O)Nc1cc(Nc2cc(-c3ccc4cnn(C)c4c3)ncn2)c(OC(F)F)cc1N1CCC(N2C[C@@H](C)O[C@@H](C)C2)CC1 [compound 162]	45.4
13.8	18.5	834	–	–	C=CC(=O)Nc1cc(Nc2cc(-c3ccc4cnn(C)c4c3)ncn2)c(OC(F)F)cc1N1CCC(N2C[C@@H](C)N(C)[C@@H](C)C2)CC1 [compound 163]	45.1
